# Where “and” joins values, the source holds several entries; their conditions need not be identical. Identical values can stand only once.
# How the values were obtained:
# [1] = tested on: human growth hormone (532) promoter; experiment: High-throughput luciferase reporter assay, human Growth Hormone promoter (Screen III); format: cell-based; details: 532 cells, 6 hours; for FOLD INDUCTION RELATIVE TO SOLVENT CONTROL, hGH: Screen III activators; for FOLD INHIBITION RELATIVE TO SOLVENT CONTROL, hGH: Screen III inhibitors
# [2] = tested on: human G-CSF (G21) promoter; experiment: High-throughput luciferase reporter assay, G-CSF promoter (Screen III); details: for FOLD INDUCTION RELATIVE TO SOLVENT CONTROL, GCSF: Screen III activators; for FOLD INDUCTION RELATIVE TO SOLVENT CONTROL, GCSF / FOLD INHIBITION RELATIVE TO SOLVENT CONTROL, GCSF: G21 cells, 6 hours; for FOLD INHIBITION RELATIVE TO SOLVENT CONTROL, GCSF: Screen III inhibitors
# MMTV (M10) promoter = experiment: High-throughput luciferase reporter assay, MMTV promoter (Screen III); format: cell-based, mouse; details: for FOLD INDUCTION RELATIVE TO SOLVENT CONTROL, MMTV: Screen III activators; for FOLD INDUCTION RELATIVE TO SOLVENT CONTROL, MMTV / FOLD INHIBITION RELATIVE TO SOLVENT CONTROL, MMTV: M10 cells, 6 hours; for FOLD INHIBITION RELATIVE TO SOLVENT CONTROL, MMTV: Screen III inhibitors
# Description: pMluci and pSV2Neo, an antibiotic resistance plasmid (112), were co-transfected into NIH/3T3 mouse fibroblast cells using the calcium phosphate precipitation method (103) with a commercially available kit (Pharmacia, Piscataway N.J.). Two days later, cells were transferred to media containing 0.4 mg/ml G418 and were grown for an additional 10-14 days. G418-resistant clones were isolated by standard methods. Once sufficient cell numbers were obtained, clones were analyzed based on several criteria: constitutive luciferase production, induction of luciferase expression by dexamethasone (1 μm, Sigma, St. Louis, Mo.), satisfactory attachment to microtiter plates used in the high-throughput screen and acceptable standard deviation in multiple luciferase expression assays (see below for assay protocol). This analysis was carried out using the luciferase assay conditions described above. Of the clones which satisfied the above criteria for the high throuphput screen, one clone, M10, was selected for use.
Compound,"FOLD INDUCTION RELATIVE TO SOLVENT CONTROL, hGH [1] [fold]","FOLD INDUCTION RELATIVE TO SOLVENT CONTROL, GCSF [2] [fold]","FOLD INDUCTION RELATIVE TO SOLVENT CONTROL, MMTV (MMTV (M10) promoter) [fold]",further results
NC(=O)N1c2ccccc2CCc2ccccc21 [compound 299],5.46,0.53,0.47,–
O=C(O)C1CCC1 [compound 1804],9.41,1.05,0.49,–
Cc1cc(=O)oc2c(CN(CC(=O)O)CC(=O)O)c(O)ccc12 [compound 1712],–,–,–,"FOLD INHIBITION RELATIVE TO SOLVENT CONTROL, hGH [1]: 8.33 fold; FOLD INHIBITION RELATIVE TO SOLVENT CONTROL, GCSF [2]: 0.74 fold; FOLD INHIBITION RELATIVE TO SOLVENT CONTROL, MMTV (MMTV (M10) promoter): 0.94 fold"
C(=Cc1ccccn1)c1ccccn1 [compound 1640],–,–,–,"FOLD INHIBITION RELATIVE TO SOLVENT CONTROL, hGH [1]: 5.00 fold; FOLD INHIBITION RELATIVE TO SOLVENT CONTROL, GCSF [2]: 0.79 fold; FOLD INHIBITION RELATIVE TO SOLVENT CONTROL, MMTV (MMTV (M10) promoter): 0.59 fold"
Nc1c(Br)cc([N+](=O)[O-])cc1[N+](=O)[O-] [compound 2010],–,–,–,"FOLD INHIBITION RELATIVE TO SOLVENT CONTROL, hGH [1]: 0.63 fold; FOLD INHIBITION RELATIVE TO SOLVENT CONTROL, GCSF [2]: 0.80 fold; FOLD INHIBITION RELATIVE TO SOLVENT CONTROL, MMTV (MMTV (M10) promoter): 3.57 fold"
Nc1nc(=O)n([C@H]2C[C@H](O)[C@@H](CO)O2)cc1Br [compound 542],1.08,6.28,1.26,–
Cc1ccc(N)c(S(=O)(=O)O)c1 [compound 1376],0.04,6.37,1.32,–
Nc1ccc(S(=O)(=O)O)c2cccc(O)c12 [compound 1337],15.87,0.07,0.23,–
O=C(O)c1[nH]c(=O)[nH]c(=O)c1I [compound 633],0.86,1.02,2.46,–
ClCc1ccc(Cl)cc1 [compound 2129],0.75,3.23,0.95,–
O=C(c1ccccc1)c1ccc(Br)cc1 [compound 1705],–,–,–,"FOLD INHIBITION RELATIVE TO SOLVENT CONTROL, hGH [1]: 14.28 fold; FOLD INHIBITION RELATIVE TO SOLVENT CONTROL, GCSF [2]: 0.54 fold; FOLD INHIBITION RELATIVE TO SOLVENT CONTROL, MMTV (MMTV (M10) promoter): 0.62 fold"
ClCCN1CCCCC1 [compound 254],0.90,4.09,0.98,–
CC1(C)[C@@H](C(=O)OCC(F)(F)C(F)(F)C(F)(F)C(F)(F)C(F)(F)C(F)F)CC[C@@]1(C)C(=O)OCC(F)(F)C(F)(F)C(F)(F)C(F)(F)C(F)(F)C(F)F [compound 1592],0.74,3.20,1.34,–
CC(C=O)=CC=CC(C)=CC=CC=C(C)C=CC=C(C)C=CC1=C(C)CCCC1(C)C [compound 519],0.68,1.15,2.76,–
N#Cc1cccc(Br)c1 [compound 1703],–,–,–,"FOLD INHIBITION RELATIVE TO SOLVENT CONTROL, hGH [1]: 10.00 fold; FOLD INHIBITION RELATIVE TO SOLVENT CONTROL, GCSF [2]: 0.76 fold; FOLD INHIBITION RELATIVE TO SOLVENT CONTROL, MMTV (MMTV (M10) promoter): 0.90 fold"
COc1ccc(CC(=O)O)cc1OC [compound 629],1.05,0.85,2.48,–
Cc1ccc(P(CCP(c2ccc(C)cc2)c2ccc(C)cc2)c2ccc(C)cc2)cc1 [compound 1591],–,–,–,"FOLD INHIBITION RELATIVE TO SOLVENT CONTROL, hGH [1]: 5.55 fold; FOLD INHIBITION RELATIVE TO SOLVENT CONTROL, GCSF [2]: 0.56 fold; FOLD INHIBITION RELATIVE TO SOLVENT CONTROL, MMTV (MMTV (M10) promoter): 0.96 fold"
O=C(N[C@H](CO)[C@H](O)c1ccc([N+](=O)[O-])cc1)C(Cl)Cl [compound 2191],0.35,0.37,7.32,–
O=c1ccc2[n+]([O-])c3ccc(O)cc3oc-2c1 [compound 427],0.43,3.14,0.71,–
CCCCCCCCCCCCCCCC(=O)OCC(COC(=O)CCCCCCCCCCCCCCC)OC(=O)CCCCCCCCCCCCCCC [compound 856],6.49,0.28,0.42,–

Compound,"FOLD INDUCTION RELATIVE TO SOLVENT CONTROL, hGH [1] [fold]","FOLD INDUCTION RELATIVE TO SOLVENT CONTROL, GCSF [2] [fold]","FOLD INDUCTION RELATIVE TO SOLVENT CONTROL, MMTV (MMTV (M10) promoter) [fold]",further results
Nc1ncnc2c1nc(Br)n2[C@@H]1O[C@H](CO)[C@@H](O)[C@H]1O [compound 1583],0.12,5.82,0.88,–
Nc1nc(-c2ccccc2)cs1 [compound 1499],5.55,0.24,0.61,–
Nc1c(Cl)ncnc1Cl [compound 1269],0.91,0.72,2.18,–
Nc1c(Cl)c(Cl)nc(C(=O)O)c1Cl [compound 1561],8.05,0.23,0.48,–
O=C(Nc1cccc(C2=NCCN2)c1)Nc1cccc(C2=NCCN2)c1 [compound 1598],5.32,0.72,1.27,–
O=C1CCCCC1Cl (centres unmarked) [compound 2148],0.92,0.45,2.82,–
CC(=O)c1c(C)cc(NC(C)(C)C)nc1NC(C)(C)C [compound 40],0.62,5.62,0.27,–
Nc1ccccc1SSc1ccccc1N [compound 1482],0.54,3.99,1.07,–
c1ccc(-c2cccc(-c3ccccn3)n2)nc1 [compound 453],0.58,0.79,–,"FOLD INDUCTION RELATIVE TO SOLVENT CONTROL, MMTV (MMTV (M10) promoter; 360 min): 13.3 fold and 13.30 fold; ability to activate the MMTV promoter with methanol replacing DMSO (MMTV (M10) promoter; chemical dissolved in methanol instead of DMSO): did not affect its ability to activate the MMTV promoter"
CC(=O)NCCCC[C@H](NC(C)=O)C(=O)O [compound 577],–,–,–,"FOLD INHIBITION RELATIVE TO SOLVENT CONTROL, hGH [1]: 4.00 fold; FOLD INHIBITION RELATIVE TO SOLVENT CONTROL, GCSF [2]: 0.64 fold; FOLD INHIBITION RELATIVE TO SOLVENT CONTROL, MMTV (MMTV (M10) promoter): 0.68 fold"
Cc1ccc(C(=O)c2ccccc2N)cc1 [compound 1384],0.50,1.33,2.43,–
"CN(C)c1ccc(C(=C2C=CC(=[N+](C)C)C=C2)c2ccc(N(C)C)cc2)cc1 [Chemical #1780, Crystal Violet]",0.38,20.39,1.15,"scored as positive in repeat assays, G-CSF ([2]; 48 independent luciferase assays performed on the same day): scored as positives in every single one of these assays"
NCCC(=O)N[C@@H](Cc1cnc[nH]1)C(=O)O [compound 1771],–,–,–,"FOLD INHIBITION RELATIVE TO SOLVENT CONTROL, hGH [1]: 10.00 fold; FOLD INHIBITION RELATIVE TO SOLVENT CONTROL, GCSF [2]: 0.71 fold; FOLD INHIBITION RELATIVE TO SOLVENT CONTROL, MMTV (MMTV (M10) promoter): 0.72 fold"
Cc1c(C2(c3cc(Br)c(O)c(Br)c3C)OS(=O)(=O)c3ccccc32)cc(Br)c(O)c1Br [compound 1251],15.19,0.14,0.33,–
Nc1nc(N)nc(N)n1 [compound 364],1.18,3.67,1.07,–
Clc1cc(Cl)cc(Br)c1 [compound 1255],0.43,6.74,1.09,–
Nc1ccc(SSc2ccc(N)cc2)cc1 [compound 1483],0.38,4.64,1.09,–
Nc1ccc(C=CC(=O)O)cc1 [compound 1234],0.51,4.97,1.03,–
Nc1ccc2c(c1)Cc1ccccc1-2 [compound 1316],1.39,0.74,2.33,–
CC1(C)O[C@@H]2C[C@H]3[C@@H]4CCC5=CC(=O)C=C[C@]5(C)[C@@]4(F)[C@@H](O)C[C@]3(C)[C@]2(C(=O)CO)O1 [compound 848],1.28,0.75,2.43,–

# Reference: patent US6203976A, “Methods of preparing compositions comprising chemicals capable of transcriptional modulation” (OSI Pharmaceuticals, Inc., priority 1994, dated 2001)
